Literature values as cited in patent US20170020882A1, “ANTIVIRAL FORMULATION” (MEDA PHARMA SARL, priority 2008, published 2017).

Columns and labels:
[1] = human, in vivo
cold sore lesions = settings: human, in vivo

Row | Structure (SMILES) | frequency of aborted lesions [1] | reduction in healing time (cold sore lesions) | reduction of time to loss of pain (cold sore lesions)
1 | CC(=O)OCC(CCn1cnc2cnc(N)nc21)COC(C)=O [famciclovir] | 8% |  | 
2 | Nc1nc2c(ncn2CCC(CO)CO)c(=O)[nH]1 [penciclovir] |  | 0.7 days | 0.6 days
